Source: a melting point compilation (Tetko et al.; mined from patent text by program, amines drawn as free bases though some values may be those of a salt)

Row | SMILES | melting point [°C]
1 | Cc1cc(C)c(S(=O)(=O)n2c(CCC(=O)O)cc3cc(Cl)ccc32)c(C)c1 | 132 to 134
2 | CCCCS(=O)c1ccc(C(=O)OC)nc1 (stereo not drawn) | 150 to 154
3 | COc1cc2cc(-c3ccc(=O)[nH]n3)sc2cc1OC | > 300
4 | O=c1c2ccc(Cl)cc2[nH]c2c(O)nn(C3CCCc4sccc43)c(=O)c12 (racemic) | > 300
5 | O=C1NCN(c2ccccc2)C12CCN(CCCn1c(=O)[nH]c3ccccc31)CC2 | 228
6 | CCOC(=O)CCC(C#N)(c1ccccc1)C(C)C (stereo not drawn) | 82 to 84
7 | Brc1cn2c(Br)cnc2c(Br)n1 | 161
8 | CCN(CC)C(=O)Cc1c(C)n(Cc2ccccc2)c2ccc(OCc3nc4ccccc4s3)cc12 | 111 to 112
9 | Cn1cc(C2=C(c3cn(C)c4ccc(N)cc34)C(=O)NC2=O)c2ccccc21 | 254 to 256
10 | CNC(=O)Oc1cccc(C2CCCN2C(=O)c2ccccc2)c1 (stereo not drawn) | 117 to 121
11 | O=c1c(-c2nnn[nH]2)cnc2c(Cl)cccn12 | 313 to 315
12 | O=C(CN1CCN(C(c2ccccc2)c2ccccc2)CC1)c1ccc(OCc2ccccc2)cc1 | 151
13 | O=C(CC1(c2ccccc2)CCC1)C(=O)Nc1ccc2c(c1)COC2=O | 142 to 146
14 | COCc1cn(-c2ccccc2)nc1OCc1ccc(OCc2nc(-c3ccco3)oc2C)c(OC)c1 | 121 to 122
15 | Cc1ccc2nc(N3CCNCC3)c(=O)n(-c3ccccc3)c2c1 | 166 to 168
16 | Cc1ccc(S(=O)(=O)NC(=O)CC(=O)O)cc1 | 80
17 | CN(C)C=C(C=CC#N)c1ccccc1 | 77 to 83
18 | CC(C)(C)c1cc(Cc2cc(C(C)(C)C)cc(C(C)(C)C)c2O)c(O)c(-n2nc3ccccc3n2)c1 | 208
19 | CC(C)(C)OC(=O)NCCN(CC(=O)O)C(=O)OCc1ccccc1 | 64.5 to 85
20 | CCCC(=O)C1=C(O)CC(c2cc([N+](=O)[O-])ccc2F)CC1=O (stereo not drawn) | 132
21 | CCOC(=O)c1cn(C)c2nc3c(F)c(N4CCNC(c5ccc(OC)cc5)C4)c(F)cc3cc2c1=O (racemic) | 209
22 | Cn1ccc(O)cc1=O | 165 to 169
23 | NC(=O)NCc1ccc(CN(CC(=O)O)C(=O)[C@@H](CCCNC(N)=N[N+](=O)[O-])NC(=O)C(c2ccccc2)c2ccccc2)cc1 | 78 to 81
24 | CCCCOC(=O)c1cc2c(cn1)[nH]c1ccccc12 | 211 to 212

Row | SMILES | melting point [°C]
25 | CCCCCc1ccc(-c2ccc(F)cc2)nc1 | 27
26 | O=C1NCC(Cc2ccccc2Cc2ccccc2)O1 (stereo not drawn) | 105 to 106
27 | COC(=O)c1cc2ccc(Br)cc2s1 | 108 to 110
28 | CSc1nc(N)nn1C | 104 to 109
29 | C=CCC(NC(=O)C(C)(C)C)C(=O)O (stereo not drawn) | 87 to 88
30 | COC(=O)c1cccc2oc(SCCCN3CCN(CC(=O)Nc4c(C(C)C)cccc4C(C)C)CC3)nc12 | 132 to 133
31 | N#Cc1ccc(NCCO)c([N+](=O)[O-])c1 | 132 to 134
32 | COc1ccc2nc(NC(=O)C(CC3CCCC3)c3ccc(S(=O)(=O)NCc4ccccc4)cc3)sc2n1 (stereo not drawn) | 237 to 240
33 | Cc1cn(C)c2c1N(C(=O)C(C)N1CCCC1)c1ccccc1NC2=O (stereo not drawn) | 213 to 215
34 | CCCCCCCCC(O)CNCCCNCC(O)CCCCCCCC (stereo not drawn) | 104 to 108
35 | CC(C)n1cc(C(=O)O)c2ccc(Br)cc21 | 207 to 209
36 | Cn1cc(-c2cc3cccnc3[nH]2)c2cc(C(=O)NCCO)ccc21 | 256 to 257
37 | COC(=O)/C=C/C=C(\C)c1ccc(OC)cc1 | 84 to 86
38 | COc1cccc(N(C)C(=O)c2cnc(Br)s2)c1 | 106
39 | NC(=O)CC(CC(N)=O)c1cccc(F)c1 | 194 to 196
40 | O=C(CSCc1ccc(F)cc1)NO | 115 to 116
41 | O=C1C2CCCC2Nc2ccccc2N1Cc1ccccc1 (stereo not drawn) | 172 to 173
42 | CCc1cc(CC)c(-c2c(O)c(C)nn(C)c2=O)c(CC)c1Cl | 225 to 226
43 | COc1ccc(C(O)CNCCc2ccc(OC)c(OC)c2Cl)cc1 (stereo not drawn) | 117 to 120
44 | CCCOC(=O)c1cc(OC)c(OC)c(OCC)c1-c1c(C(=O)OC)cc(OC)c2c1OCO2 | 74.5 to 76
45 | OCCN1c2ccccc2Oc2ccccc21 | 113 to 115
46 | Cc1cc(C#N)cc(C)c1OCCCC1=NNC(=O)CC1 | 124
47 | COc1ccc(C(=O)Oc2ccc(COc3ccc4c(c3)CCC(CN(C)C)C4)cc2)cc1 (stereo not drawn) | 119 to 121

Continued, values first:

Row | melting point [°C] | SMILES
48 | 110 to 115 | C[C@H](CCC=O)[C@H]1CC[C@@]2(C)C3=C(CC[C@]12C)[C@@]1(C)CCC(=O)C(C)(C)C1CC3 (stereo partly drawn)
49 | 138 | O=C(O)CSc1cc(-c2ccccc2)nc2ccccc12
50 | 189 to 190 | Cc1c(Cl)ccc2c3c([nH]c12)[C@@]1(CC(=O)O)CC[C@H]1CC3 (relative stereo)
51 | 135 | N#CCCNNC(=S)c1ccc(OCc2ccccc2)cc1
52 | 167 to 168 | CNc1cc(CO)cc(S(N)(=O)=O)c1Oc1ccccc1
53 | 116 to 118 | COc1cc(NCCCN(C)Cc2ccccc2)ccc1C(N)=O
54 | 92 to 94 | CCOC(=O)C[C@H](O)C[C@H](O)/C=C/c1c(-c2ccc(F)cc2)nc(N(C)S(C)(=O)=O)nc1C(C)C
55 | 85 to 87 | CC(C)COC(=O)C(C#N)=CNCc1ccco1
56 | 296 to 298 | CC(=O)Nc1cc(I)c(-c2cc([N+](=O)[O-])c(NC(C)=O)cc2I)cc1[N+](=O)[O-]
57 | 87 to 88 | COCCNc1nccc(Oc2ccc(NC(=O)c3cc(F)cc(N4CCCCC4)c3)c3ccccc23)n1
58 | 102 to 104 | O=Cc1cccc(OCCCN2C(=O)c3ccccc3C2=O)c1
59 | 93 | CCC[C@H]1CC[C@H](OC(=O)c2ccc(OCC)c(F)c2F)CC1
60 | 151 to 152 | CC1(C)Oc2ccsc2C(N2CCCCC2=O)C1O (stereo not drawn)
61 | 220 to 233 | O=C1CNCc2[nH]c3ccccc3c21
62 | 43 to 45 | CCCCCc1csc2cc(OC)ccc12
63 | > 390 | O=C(O)c1ccc2nc3c4nc5cc(C(=O)O)ccc5nc4c4nc5cc(C(=O)O)ccc5nc4c3nc2c1
64 | 175 | CN1CCC=C(c2cccc3[nH]ccc23)C1
65 | 90 | COc1ccc(F)cc1C(C)(C)c1cc(F)ccc1O
66 | 97 to 99 | O[C@@H](COc1cccc(-c2noc3ccsc23)c1)CN1CCN(c2n[nH]c3cc(F)ccc23)CC1

Row | melting point [°C] | SMILES
67 | 175 | Cc1cccc(NC(=O)NCC(=O)N(CC(=O)N(C)c2ccccc2Cl)c2ccccc2)c1
68 | 120 | CN(C)CCNC(=O)c1ccc2c(c1)CN(C(=O)CCCCCN1CCN(c3cccc(C(F)(F)F)c3)CC1)C2
69 | 211 to 212 | O=C(C(=O)c1ccc([N+](=O)[O-])cc1)c1ccc([N+](=O)[O-])cc1
70 | 87 to 89 | CCCCCCc1cc(-c2ccccc2)c(OCC(=O)OC)c(-c2ccccc2)c1
71 | 44.5 to 45.5 | C=CCCCc1cc(-c2ccc(F)cc2)nc(C)n1
72 | 125 | CCN(CC)CCOc1ccc(Nc2ncc3c(n2)N(C(C)C)C(=O)N(c2c(Cl)cccc2Cl)C3)cc1
73 | 248 | O=C(O)c1cnn2c(C(F)(F)F)cc(-c3ccc(C(F)(F)F)cc3)nc12
74 | 144 to 148 | CCOC(=O)c1[nH]cc2c1NC1=C(C(=O)CCC1)C2c1ccc(Sc2nc3ccc(F)c(F)c3[nH]2)o1 (stereo not drawn)
75 | 150 | CC(=O)OC1CCC2(C)C(CCC3C4CC(C)C(O)(C(C)=O)C4(C)CCC32F)C1 (stereo not drawn)
76 | 118 | CC(C)Cc1ccc(C(=O)O)cc1C#N
77 | 146 to 150 | Cn1c(-c2ccc(OC3CCN(C4CCC4)CC3)cc2)nc2ncccc2c1=O
78 | 141 to 142 | Cn1c(CC(=O)O)ccc1C(=O)c1cccs1
79 | 180 to 182 | O=C(Oc1cc(CBr)ccc1F)c1ccccc1
80 | 137 to 138 | COc1ccc2c(c1)c1c3c(ccc1n2C)C(=O)N(CCN(C)C)C3=O
81 | 230 to 232 | CC(C)(Cn1c(CO)nc2c(N)nc3cccnc3c21)NC(=O)C1CCCCC1
82 | 190 to 191 | NC1=CC(=O)CC(c2ccccc2)C1 (stereo not drawn)
83 | 107 to 108 | COCCOC(=O)Nc1cccc(C)c1COc1cccn2c(C)c(C)nc12
84 | 175 to 177 | CN1C(=O)N(c2cc(Cl)cc(Cl)c2)C(=O)[C@]12CNC[C@H]2c1ccc(C#N)cc1
85 | 111 to 113 | CC1CCN(c2cc(C(C)(C)C)ns2)C1=O (stereo not drawn)

Row | melting point [°C] | SMILES
86 | 230 to 232 | CC(=O)NC(C(=O)O)c1ccc2occc2c1 (stereo not drawn)
87 | 220 to 221 | Clc1ccc2cc3ccccc3cc2c1
88 | 170 to 173 | CCOP(=O)(CC(=O)Nc1c(C(C)C)cccc1C(C)C)c1ccccc1 (stereo not drawn)
89 | 279 to 284 | O=P(O)(O)CNC1CCCCC1
90 | 78 to 88 | COC(=O)c1c(C(F)F)nc(C(F)(F)F)c(C(O)c2cccs2)c1CC(C)C (stereo not drawn)
91 | 279 to 280 | Cc1cc(C=CC#N)cc(Oc2[nH]c(=O)[nH]c(=O)c2C(C)C)c1
92 | 161 to 162 | C[C@]1(CN2CCN(C(=O)N3CC=C(c4ccc(Cl)cc4)CC3)CC2)Cn2cc([N+](=O)[O-])nc2O1
93 | 122 | COc1cc2c(cc1OC)C(=O)C(CC=O)C2 (racemic)
94 | 173 to 175 | CCOCc1nc2c(N)nc3cc(OCc4nc(-c5cccs5)no4)ccc3c2n1CC(C)(C)O
95 | 188 to 190 | CNc1ncnc2c1ncn2Cc1c(F)cccc1Cl
96 | 170 to 172 | O=C1NN(c2nc3ccc(Cl)cc3s2)C(c2ccccc2)C1c1ccccc1 (stereo not drawn)
97 | 95 to 96 | C=CCOc1ccc(-c2nc3ccccc3o2)cc1
98 | 214 to 216 | Cc1cccc(-c2c(C3CCN(C)CC3)[nH]c(=O)c3ccccc23)c1
99 | > 250 | CSc1ncc2ccc(N)nc2n1
100 | 109 to 110 | COc1ccc(-c2cc(C(C)(C)C)c(O)c(C(C)(C)C)c2)cc1
101 | 291 to 292 | COc1cc(OC)c2c(=O)[nH]c(-c3cc(C)nc(C)c3)nc2c1
102 | 139 to 140 | Cc1c(-c2ccncc2)sc(-c2ccncc2)c1C=O
103 | 49 to 50 | Cc1noc(NS(=O)(=O)c2ccc(Cc3ccccc3)s2)c1Br
